In patent US5187086A, “Molecules with antibody combining sites that catalyze hydrolysis reactions through use of a charged hapten” (Scripps Clinic and Research Foundation, priority 1991, dated 1993):
One block for each molecule: values may come before it.

Legend:
Assay type in all cases: biochemical, mouse (129G1X)
[1] = tested on: monoclonal antibody 30C6 (hybridoma 30C6, ATCC HB 10341), IgG induced by haptenic ligand Compound 1a; experiment: Hydrolysis of benzoate ester Compound 3 catalyzed by monoclonal antibody 30C6 (HPLC assay, Michaelis-Menten kinetics)
Description: Monoclonal antibodies at a concentration of 20 μM were initially screened (phosphate buffer 50 mM, pH 7.5, 100 mM NaCl, 37° degrees C.) against benzoate ester reactant ligand Compound 3, ([…]) for the production of 5-[[4-(hydroxy)phenyl]aming]-5-oxo-pentanoic acid, Compound 4. [Analysis was performed via HPLC on an RP-C18 column eluting with water: acetonitrile (op:10) at a flow of 1 ml/min with UV detector set to 254 nm. The hydrolysis product, Compound 4 (FIG. 1; retention time 7 minutes) was collected (recovered) an found to be identical by RP-HPLC coinjection and mass spectral analysis with an authentic sample.]
The pH dependence of the hydrolysis of substrate Compound 3 was examined in the presence of monoclonal antibodies 30C6 (20 μM) between pH 6.0 and 7.2 (Bis-tris) and 7.2-8.0 (phosphate), both at 50 mM buffer and 100 mM NaCl, 37° degrees C. (FIG. 2).

[2] = tested on: monoclonal receptor (antibody) 27A6 (hybridoma 27A6, ATCC HB 10621), IgG induced by hapten Compound 5a; experiment: Hydrolysis of benzoate ester Compound 3 catalyzed by monoclonal receptor 27A6 (HPLC assay, Michaelis-Menten kinetics)
Description: That monoclonal receptor is also referred to as receptor or antibody 27A6.
Purified monoclonal antibodies were dialyzed against EPPS buffer (I mM, pH 8.0, 100 mM NaCl) or CHES buffer (1 mM, pH 8.0, 100 mM NaCl). Its protein concentration was determined by the BCA method (Pierce). Assays were performed by HPLC (reverse-phase column, C18, VYDAC 201Tp54) with C3 CN/H2 O (0.1 percent TFA) on an isocratic program of 10/90. An internal standard of o-acetamidophenol was used to calculate the amount of product formed [4-(carboxybutyramido)phenol].
Reactions contained 5 percent cosolvent dioxane, and the temperature was maintained at 37°±0.1°degrees C. Initial linear rates were measured at<5 percent hydrolysis of the total substrate. […] Kinetic parameters Vmax Km were determined by nonlinear least-squares fitting of the initial rate vs. substrate concentration to a hyperbolic curve described by the Michaelis-Menten equation.

[3] = tested on: the three catalytic monoclonal antibodies obtained to hapten Compound 5a; experiment: HPLC screen of hydrolysis of Compound 3 by catalytic antibodies, inhibition by free hapten; settings: 50 μM inhibitor; antibody 20 μM, Compound 3 500 μM, phosphate 50 mM, pH 7.5, 100 mM NaCl, 37 degrees C
Description: Antibodies at a concentration of 20μM were initially screened (phosphate buffer, 50 mM, pH 7.5, 100 mM NaCl, 37° degrees C.) via an HPLC assay against benzoate ester Compound 3, (500 μM) for the production of 5-[(4-hydroxyphenyl)aming]-5-oxopentanoic acid, Compound 4.

[4] = tested on: monoclonal receptor (antibody) 27A6 (hybridoma 27A6, ATCC HB 10621), IgG induced by hapten Compound 5a; experiment: Chemical modification of antibody 27A6, then assay of catalytic (esterolytic) activity by HPLC
Description: The esterolytic activity of monoclonal receptor 27A6 was unaffected by treatment with diethyl pyrocarbonate or maleic anhydride in fifty-fold molar excess to protein.
(a) Phenylglyoxal; a 50 μl aliquot of a phenylglyoxal solution (6 mM), (125 mM NaHCO3, pH 7.5) was added to buffer 195 μl (125 mM, pH 7.5 NaHCO3), containing antibody (20 μM). The mixture was vortexed and left to stand for one hour at room temperature. This reaction mixture was then transferred to a microdialyzer (Pierce) and dialyzed with 125 mM, pH 7.5 NaHCO3 with a flow through of approximately 150 ml/hour for two hours. The microdialyzer was then flushed with 4×60 ml portions of pH 8.4, 50 mM CHES, 100 mM NaCl and left to stand in this buffer overnight (about 15-18 hours). The microdialyzer was again flushed 3×50 ml portions of pH 8.4, 50 mM CHES, 100 mM NaCl the next morning. Samples were removed, protein concentrations recalculated (BCA) and assays run for catalytic activity (HPLC) or binding (ELISA). A similar procedure was used with hapten present (200 μM).
(b) Maleic anhydride; a […] aliquot of a maleic anhydride solution (0.06 M, dioxane) was added to 299 μl of 20 mM, pH 8.9 borate, 100 mM NaCl containing 20 μM of antibody. The solution was vortexed and left to stand at room temperature for one hour. This reaction mixture was then transferred to a microdialyzer and dialyzed as described above with 50 mM CHES, pH 8.4, 100 mM NaCl. Samples were removed, protein concentrations calculated (BCA), and assays run for catalytic activity or binding.
(c) Diethyl pyrocarbonate; 10 μl of a 0.6 M diethylpyrocarbonate solution in ethanol was diluted into 1 ml of sodium acetate (NaOAc) (150 mM, pH 6, 100 mM NaCl). Five microliters of that solution were added to 299 μl of NaOAc (150 mM, pH 6.0, 100 mM NaCl) containing 20 µM of antibody. The mixture was vortexed and left to stand at 4° degrees C. overnight (about 15-18 hours). This reaction mixture was then transferred to a microdialyzer and dialyzed as described above with CHES (50 mM, pH 8.4, 100 mM NaCl). Samples were removed, protein concentrations determined (BCA) and assays performed for catalytic activity and binding.

[5] = hydrolysis of Compound 3, 50 mM phosphate, 100 mM NaCl, pH 7.2, 37 degrees C, antibody 20 μM
[6] = treatment with reagent in fifty-fold molar excess to protein

Km [1, 5]: 1120 ± 50 µM | Kcat^app ([2]; hydrolysis of Compound 3, 50 mM EPPS, 100 mM NaCl, pH 8.5, 37 degrees C): 0.00017 ± 3.3e-05 s⁻¹
Structure (SMILES): O=C(O)CCCC(=O)Nc1ccc(OC(=O)c2ccccc2)cc1 [Compound 3]
Kcat^app [1, 5]: 5±0.2×10^-3 min^-1 | ratio of kcat/ko (rate acceleration by the antibody over hydrolysis in water) ([1]; pH independent antibody-catalyzed rate vs hydrolysis of Compound 3 in water): over a million fold

Structure (SMILES): Nc1ccc(CC(O)c2ccccc2C(=O)O)cc1 (stereo not shown) [Compound 5b]
Ki ([2]; competitive inhibitor, substrate Compound 3, read-out: K (competitive inhibition of the antibody-catalyzed hydrolysis of Compound 3)): 6 ± 2 µM | inhibition of catalysis [3]: completely inhibited

esterolytic activity after treatment [4, 6]: unaffected
Structure (SMILES): CCOC(=O)OC(=O)OCC [diethyl pyrocarbonate]

esterolytic activity after treatment [4, 6]: unaffected
Structure (SMILES): O=C1C=CC(=O)O1 [maleic anhydride]

loss of catalytic activity in the presence of inhibitor Compound 5b ([4]; reagent in fifty-fold molar excess, Compound 5b five-fold molar excess to protein): 35% | loss of catalytic activity [4, 6]: 75%
Structure (SMILES): O=CC(=O)c1ccccc1 [phenylglyoxal]
